Experiments:
[1] = biological target: human ERK-2 (Mitogen Activated Kinase 1) (Homo sapiens (Human), UniProt P28482); assay: ERK-2 Enzymatic Assay; type: biochemical; details: 5 nM ERK-2, 25 μM ATP, Omnia peptide S/T17; read-out: ERK Inhibition IC50
Procedure, shortened: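 Recombinant N-terminal 6-His human ERK-2 (aa 8-360, E. coli) with fluorescent Omnia peptide S/T17 substrate, ambient temperature, read kinetically every 50 s for ~30 min (Ex 340/Em 495 nm). Linear rates converted to percent of control; IC50 from four-parameter fit.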

[2] = tested on: PMA-stimulated P90RSK(Ser380) phosphorylation in HepG2 cells; assay: Cellular P90RSK(Ser380) Phosphorylation Assay; type: cell-based; details: Homo sapiens, 1.5 h compound incubation, PMA stimulation, pP90RSK(Ser380) normalized to GAPDH, read-out: Cell Assay IC50
Procedure, shortened: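 HepG2 cells were pretreated with compound (0.5% DMSO final) for 1.5 h, then stimulated with PMA 100 ng/mL for 30 min at 37° C. Fixed, permeabilized cells were immunostained for pP90RSK(Ser380) and GAPDH. The two-channel infrared fluorescence was read, and the phospho signal was normalized to GAPDH.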

Chain of human ERK-2 (Mitogen Activated Kinase 1) (P28482 8-360): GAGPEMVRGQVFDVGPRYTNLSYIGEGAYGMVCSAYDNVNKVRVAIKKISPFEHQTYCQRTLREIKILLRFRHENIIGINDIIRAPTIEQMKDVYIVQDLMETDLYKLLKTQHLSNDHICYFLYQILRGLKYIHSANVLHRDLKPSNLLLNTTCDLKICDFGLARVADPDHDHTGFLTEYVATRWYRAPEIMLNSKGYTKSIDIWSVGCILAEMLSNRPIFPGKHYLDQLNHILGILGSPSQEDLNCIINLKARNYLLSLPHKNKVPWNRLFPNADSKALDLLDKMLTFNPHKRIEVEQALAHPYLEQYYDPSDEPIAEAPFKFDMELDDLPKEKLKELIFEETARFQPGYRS

| Structure (SMILES) | IC50 [1] [µM] | IC50 [2] [µM] |
| --- | --- | --- |
| CNC(=O)C(NC(=O)N1CCc2cnc(NC(C)C)nc2C1)c1ccc(F)c(Cl)c1 (stereo not shown) [II-26, 2-Isopropylamino-5,8-dihydro-6H-pyrido[3,4-d]pyrimidine-7-carboxylic acid [(3-chloro-4-fluoro-phenyl)-methylcarbamoyl-methyl]-amide] | 0.0866 | 12.2 |
| Cc1noc(C)c1Nc1ncc2c(n1)CN(C(=O)N[C@H](CO)c1ccc(F)c(Cl)c1)CC2 [II-34, 2-(3,5-Dimethyl-isoxazol-4-ylamino)-5,8-dihydro-6H-pyrido[3,4-d]pyrimidine-7-carboxylic acid [(S)-1-(3-chloro-4-fluoro-phenyl)-2-hydroxy-ethyl]-amide] | 0.0259 | 13.2 |
| COCCNC[C@@H](NC(=O)N1CCc2cnc(NC(C)C)nc2C1)c1ccc(F)c(Cl)c1 [II-41, 2-Isopropylamino-5,8-dihydro-6H-pyrido[3,4-d]pyrimidine-7-carboxylic acid [(S)-1-(3-chloro-4-fluoro-phenyl)-2-(2-methoxy-ethylamino)-ethyl]-amide] | 0.0154 | 1.9 |
| CC(C)Nc1ncc2c(n1)CN(C(=O)N[C@H](CNc1ncccn1)c1ccc(F)c(Cl)c1)CC2 [II-50, 2-Isopropylamino-5,8-dihydro-6H-pyrido[3,4-d]pyrimidine-7-carboxylic acid [(S)-1-(3-chloro-4-fluoro-phenyl)-2-(pyrimidin-2-ylamino)-ethyl]-amide] | 0.00443 | 1 |
| CC(C)Nc1ncc2c(n1)CN(C(=O)N[C@H](CNc1ccncn1)c1ccc(F)c(Cl)c1)CC2 [II-51, 2-Isopropylamino-5,8-dihydro-6H-pyrido[3,4-d]pyrimidine-7-carboxylic acid [(S)-1-(3-chloro-4-fluoro-phenyl)-2-(pyrimidin-4-ylamino)-ethyl]-amide] | 0.0024 | 0.435 |
| COCCOC[C@@H](NC(=O)N1CCc2cnc(N[C@@H](C)CO)nc2C1)c1ccc(F)c(Cl)c1 [II-78, 2-((S)-2-Hydroxy-1-methyl-ethylamino)-5,8-dihydro-6H-pyrido[3,4-d]pyrimidine-7-carboxylic acid [(S)-1-(3-chloro-4-fluoro-phenyl)-2-(2-methoxy-ethoxy)-ethyl]-amide] | 0.0177 | 1.4 |
| C[C@@H](NC(=O)N1CCc2cnc(N[C@H]3CCC(F)(F)C3)nc2C1)c1ccc(Cl)c(Cl)c1 [II-116, 2-((S)-3,3-Difluoro-cyclopentylamino)-5,8-dihydro-6H-pyrido[3,4-d]pyrimidine-7-carboxylic acid [(R)-1-(3,4-dichloro-phenyl)-ethyl]-amide] | 0.00233 | 0.13 |
| Cc1nccc(Nc2ncc3c(n2)CN(C(=O)N[C@H](C)c2ccc(Cl)c(Cl)c2)CC3)n1 [II-126, 2-(2-Methyl-pyrimidin-4-ylamino)-5,8-dihydro-6H-pyrido[3,4-d]pyrimidine-7-carboxylic acid [(R)-1-(3,4-dichloro-phenyl)-ethyl]-amide] | 0.0069 | 0.141 |
| C[C@@H](CO)Nc1ncc2c(n1)CN(C(=O)NCc1nc3ccccc3o1)CC2 [II-151, 2-((S)-2-Hydroxy-1-methyl-ethylamino)-5,8-dihydro-6H-pyrido[3,4-d]pyrimidine-7-carboxylic acid (benzooxazol-2-ylmethyl)-amide] | 0.0528 | 10 |
| O=C(NCc1ccc2cc[nH]c2c1)N1CCc2cnc(NC3CCOCC3)nc2C1 [II-223, 2-(Tetrahydro-pyran-4-ylamino)-5,8-dihydro-6H-pyrido[3,4-d]pyrimidine-7-carboxylic acid (1H-indol-6-ylmethyl)-amide] | 0.0057 | 0.186 |
| C[C@@H](NC(=O)N1CCc2cnc(NC3CC(=O)N(C)C3)nc2C1)c1ccc(Cl)c(F)c1 (stereo partly shown) [II-267, 2-(1-Methyl-5-oxo-pyrrolidin-3-ylamino)-5,8-dihydro-6H-pyrido[3,4-d]pyrimidine-7-carboxylic acid [1-(4-chloro-3-fluoro-phenyl)-ethyl]-amide] | 0.0201 | 28 |
| O=C(N1CCc2cnc(NC3CCOCC3)nc2C1)N1CCCC1c1ccccn1 (stereo not shown) [II-288, (2-Pyridin-2-yl-pyrrolidin-1-yl)-[2-(tetrahydro-pyran-4-ylamino)-5,8-dihydro-6H-pyrido[3,4-d]pyrimidin-7-yl]-methanone] | 0.0627 | 9.5 |
| C[C@@H](NC(=O)N1CCc2cnc(NC3CC(F)(F)C3)nc2C1)c1ccc(Cl)c(Cl)c1 [II-355, 2-(3,3-Difluoro-cyclobutylamino)-5,8-dihydro-6H-pyrido[3,4-d]pyrimidine-7-carboxylic acid [(R)-1-(3,4-dichloro-phenyl)-ethyl]-amide] | 0.0075 | 0.97 |
| C[C@@H](NC(=O)N1CCc2cnc(N[C@H]3C[C@@H](O)C3)nc2C1)c1ccc(Cl)c(Cl)c1 [II-371, 2-((1S,3S)-3-Hydroxy-cyclobutylamino)-5,8-dihydro-6H-pyrido[3,4-d]pyrimidine-7-carboxylic acid [(R)-1-(3,4-dichloro-phenyl)-ethyl]amide] | 0.00315 | 0.09 |
| COCC[C@@H](CO)Nc1ncc2c(n1)CN(C(=O)N[C@H](C)c1ccc(Cl)c(Cl)c1)CC2 [II-399, 2-((S)-1-Hydroxymethyl-3-methoxy-propylamino)-5,8-dihydro-6H-pyrido[3,4-d]pyrimidine-7-carboxylic acid [(R)-1-(3,4-dichloro-phenyl)-ethyl]-amide] | 0.00303 | 0.287 |

Continued by falling IC50 [1], values first:

| IC50 [1] [µM] | Structure (SMILES) | IC50 [2] [µM] |
| --- | --- | --- |
| 0.411 | C[C@@H](CO)Nc1ncc2c(n1)CN(C(=O)NCc1cccc3cc[nH]c13)CC2 [II-200, 2-((S)-2-Hydroxy-1-methyl-ethylamino)-5,8-dihydro-6H-pyrido[3,4-d]pyrimidine-7-carboxylic acid (1H-indol-7-ylmethyl)-amide] | 1 |
| 0.21 | O=C(N[C@H](CO)c1ccc(F)c(Cl)c1)N1CCc2cnc(Nc3ccc(Cl)c(F)c3)nc2C1 [II-61, 2-(4-Chloro-3-fluoro-phenylamino)-5,8-dihydro-6H-pyrido[3,4-d]pyrimidine-7-carboxylic acid [(S)-1-(3-chloro-4-fluoro-phenyl)-2-hydroxy-ethyl]-amide] | 21.3 |
| 0.0383 | O=C(NC1(c2ccc(Cl)cc2)CCNC1)N1CCc2cnc(Nc3ccc(F)cc3)nc2C1 (stereo not shown) [II-64, 2-(4-Fluoro-phenylamino)-5,8-dihydro-6H-pyrido[3,4-d]pyrimidine-7-carboxylic acid [3-(4-chloro-phenyl)-pyrrolidin-3-yl]-amide] | 3.1 |
| 0.0215 | CNC[C@@H](NC(=O)N1CCc2cnc(Nc3ccc(F)cc3)nc2C1)c1ccc(F)c(Cl)c1 [II-35, 2-(4-Fluoro-phenylamino)-5,8-dihydro-6H-pyrido[3,4-d]pyrimidine-7-carboxylic acid [(S)-1-(3-chloro-4-fluoro-phenyl)-2-methylamino-ethyl]-amide] | 0.16 |
| 0.0072 | CC(C)Nc1ncc2c(n1)CN(C(=O)N[C@H](CCO)c1ccc(C(F)(F)F)c(F)c1)CC2 [II-72, 2-Isopropylamino-5,8-dihydro-6H-pyrido[3,4-d]pyrimidine-7-carboxylic acid [(R)-1-(3-fluoro-4-trifluoromethyl-phenyl)-3-hydroxy-propyl]-amide] | 0.208 |
| 0.0071 | CC(C)Nc1ncc2c(n1)CN(C(=O)N[C@H](CNS(C)(=O)=O)c1ccc(F)c(Cl)c1)CC2 [II-43, 2-Isopropylamino-5,8-dihydro-6H-pyrido[3,4-d]pyrimidine-7-carboxylic acid [(S)-1-(3-chloro-4-fluoro-phenyl)-2-methanesulfonylamino-ethyl]-amide] | 0.917 |
| 0.0066 | CC(C)Nc1ncc2c(n1)CN(C(=O)NCc1cc3ccccc3[nH]1)CC2 [II-195, 2-Isopropylamino-5,8-dihydro-6H-pyrido[3,4-d]pyrimidine-7-carboxylic acid (1H-indol-2-ylmethyl)-amide] | 0.281 |
| 0.0047 | C[C@@H](NC(=O)N1CCc2cnc(N[C@H](CO)Cc3ccccc3)nc2C1)c1ccc(Cl)c(Cl)c1 [II-111, 2-((S)-1-Hydroxymethyl-2-phenyl-ethylamino)-5,8-dihydro-6H-pyrido[3,4-d]pyrimidine-7-carboxylic acid [(R)-1-(3,4-dichloro-phenyl)-ethyl]-amide] | 0.693 |
| 0.004 | N#CCN1C[C@@H](NC(=O)N2CCc3cnc(NC4CCOCC4)nc3C2)[C@H](c2ccc(F)c(F)c2)C1 [II-341, 2-(Tetrahydro-pyran-4-ylamino)-5,8-dihydro-6H-pyrido[3,4-d]pyrimidine-7-carboxylic acid [(3S,4R)-1-cyanomethyl-4-(3,4-difluoro-phenyl)-pyrrolidin-3-yl]-amide] | 0.371 |
| 0.00323 | CC(C)Nc1ncc2c(n1)CN(C(=O)N[C@@H](c1ccc(F)c(Cl)c1)[C@H](C)O)CC2 [II-40, 2-Isopropylamino-5,8-dihydro-6H-pyrido[3,4-d]pyrimidine-7-carboxylic acid [(1S,2S)-1-(3-chloro-4-fluoro-phenyl)-2-hydroxy-propyl]-amide] | 0.0873 |
| 0.0022 | C[C@H](Cc1ccc(Cl)cc1)NC(=O)N1CCc2cnc(N[C@@H](C)CO)nc2C1 [II-136, 2-(2-Hydroxy-1-methyl-ethylamino)-5,8-dihydro-6H-pyrido[3,4-d]pyrimidine-7-carboxylic acid [2-(4-chloro-phenyl)-1-methyl-ethyl]-amide] | 0.464 |
